Patent publication US11339136B2 (Novartis AG, priority 2016, dated 2022)

Biological target: T1, hNLRP3 (Homo sapiens, UniProt Q96P20)
T1 construct: THP-1 cells were purchased from the American Type Culture Collection; host or cells: THP-1 cells, PMA-differentiated
Experiment: IL-1β production in PMA-differentiated THP-1 cells stimulated with gramicidin
Type: cell-based
Details: gramicidin 5 μM, IL-1β in supernatant, Table 2
Experimental: Bioassay: IL-1β Production in PMA-Differentiated THP-1 Cells Stimulated with Gramicidin. Procedure 1:
Cell culture—THP-1 cells were purchased from the American Type Culture Collection and sub-cultured according to instructions from the supplier. Prior to experiments, cells were cultured in RPMI 1640 containing 10% heat inactivated FBS, penicillin (100 units/ml) and streptomycin (100 μg/ml), and maintained in log phase prior to experimental setup. Prior to the experiment THP-1 were treated with PMA (Phorbol 12-myristate 13-acetate) (10 μg/ml) for 24 hours. The day of the experiment the media was removed and attaching cells were treated with trypsin for 2 minutes, cells were then collected, washed with PBS (phosphate buffer saline), spin down, resuspended in 2% heat inactivated FBS with RPMI at a concentration of 1×10^6 cells/ml, and 100 ul was plated in a 96 well plate. Cells were incubated with compounds for 1 hours and then stimulated with Gramicidin (5 μM) (Enzo) for 2 hours. Cell free supernatant was collected and the production of IL-1β was evaluated by ELISA. Compounds were dissolved in dimethyl sulfoxide (DMSO) and added to the culture medium to achieve desired concentration (e.g. 100, 30, 10, 3, 1, 0.3 or 0.1 μM). A vehicle only control was run concurrently with each experiment. Final DMSO concentration was 1%.
THP-1 cells were purchased from the American Type Culture Collection and sub-cultured according to instructions from the supplier. Prior to experiments, cells were cultured in complete RPMI 1640 (containing 10% heat inactivated FBS, penicillin (100 units/ml) and streptomycin (100 μg/ml)), and maintained in log phase prior to experimental setup. Prior to the experiment THP-1 were treated with PMA (Phorbol 12-myristate 13-acetate) (20 ng/ml) for 16-18 hours. On the day of the experiment the media was removed and adherent cells were detached with trypsin for 5 minutes. Cells were then harvested, washed with complete RPMI 1640, spun down, resuspended in RPMI 1640 (containing 2% heat inactivated FBS, penicillin (100 units/ml) and streptomycin (100 μg/ml). The cells were plated in a 384-well plate at a density of 50,000 cells/well (final assay volume 50 μl). Compounds were dissolved in dimethyl sulfoxide (DMSO) and added to the culture medium to achieve desired concentration (e.g. 100, 33, 11, 3.7, 1.2, 0.41, 0.14, 0.046, 0.015, 0.0051, 0.0017 μM). Cells were incubated with compounds for 1 hour and then stimulated with gramicidin (5 μM) (Enzo) for 2 hours. Cell free supernatant was collected and the production of IL-1β was evaluated by HTRF (cisbio). A vehicle only control was run concurrently with each experiment. Final DMSO concentration was 0.38%.

T1 sequence (Q96P20 whole entry): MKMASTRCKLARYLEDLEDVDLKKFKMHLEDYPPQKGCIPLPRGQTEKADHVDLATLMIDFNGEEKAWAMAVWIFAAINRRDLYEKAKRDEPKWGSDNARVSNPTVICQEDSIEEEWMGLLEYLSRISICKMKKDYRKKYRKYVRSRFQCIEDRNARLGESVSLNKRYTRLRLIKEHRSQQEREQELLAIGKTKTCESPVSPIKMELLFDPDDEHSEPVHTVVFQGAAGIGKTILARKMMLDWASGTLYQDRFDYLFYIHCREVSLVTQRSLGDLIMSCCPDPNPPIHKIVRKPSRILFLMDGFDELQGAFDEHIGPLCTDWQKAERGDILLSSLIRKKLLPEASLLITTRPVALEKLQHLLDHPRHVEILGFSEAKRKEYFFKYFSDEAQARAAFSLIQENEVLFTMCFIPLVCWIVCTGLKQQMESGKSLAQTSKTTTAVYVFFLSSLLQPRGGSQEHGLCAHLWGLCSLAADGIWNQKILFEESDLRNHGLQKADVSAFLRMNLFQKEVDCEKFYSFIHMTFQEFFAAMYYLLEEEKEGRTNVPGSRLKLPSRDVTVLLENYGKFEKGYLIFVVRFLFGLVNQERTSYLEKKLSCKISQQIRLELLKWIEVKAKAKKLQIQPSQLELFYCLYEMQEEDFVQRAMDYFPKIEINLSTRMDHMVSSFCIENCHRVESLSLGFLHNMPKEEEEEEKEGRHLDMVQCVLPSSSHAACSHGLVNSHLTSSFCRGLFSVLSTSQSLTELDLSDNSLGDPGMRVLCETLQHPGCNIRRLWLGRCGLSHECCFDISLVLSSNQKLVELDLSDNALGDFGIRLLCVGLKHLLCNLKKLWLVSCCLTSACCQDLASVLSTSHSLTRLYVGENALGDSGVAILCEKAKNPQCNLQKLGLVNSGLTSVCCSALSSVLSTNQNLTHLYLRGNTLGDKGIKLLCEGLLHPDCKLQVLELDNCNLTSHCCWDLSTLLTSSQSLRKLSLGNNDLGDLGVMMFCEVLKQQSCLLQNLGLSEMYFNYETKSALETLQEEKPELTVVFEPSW

| Compound | IC50 [nM] |
| --- | --- |
| CC(C)c1ccc(F)c(C(C)C)c1NC(=O)NS(=O)(=O)c1ncc(C2(O)CCC2)s1 [Compound 169, N-(3-fluoro-2,6-diisopropylphenylcarbamoyl)-5-(1-hydroxycyclobutyl) thiazole-2-sulfonamide] | 5000 to 15000 |
| CCc1cc(Cl)cc(CC)c1NC(=O)NS(=O)(=O)c1ncc(C(C)(C)O)s1 [Compound 170, N-(4-chloro-2,6-diethylphenylcarbamoyl)-5-(2-hydroxypropan-2-yl) thiazole-2-sulfonamide] | 5000 to 15000 |
| CCc1cc(Cl)cc(CC)c1NC(=O)NS(=O)(=O)c1cc(C(C)(C)O)cs1 [Compound 171, N-(4-chloro-2,6-diethylphenylcarbamoyl)-4-(2-hydroxypropan-2-yl) thiophene-2-sulfonamide] | 1000 to 5000 |
| CCc1cccc(CC)c1NC(=O)NS(=O)(=O)c1ncc(C(C)(C)O)s1 [Compound 172, N-(2,6-diethylphenylcarbamoyl)-5-(2-hydroxypropan-2-yl)thiazole-2-sulfonamide] | 1000 to 5000 |
| CCc1cccc(CC)c1NC(=O)NS(=O)(=O)c1cc(C(C)(C)O)cs1 [Compound 173, N-(2,6-diethylphenylcarbamoyl)-4-(2-hydroxypropan-2-yl)thiophene-2-sulfonamide] | 15000 to 35000 |
| CC(C)c1ccc2c(c1NC(=O)NS(=O)(=O)c1cc(C(C)(C)O)cs1)CCC2 [Compound 175, 4-(2-hydroxypropan-2-yl)-N-(5-isopropyl-2,3-dihydro-1H-inden-4-ylcarbamoyl) thiophene-2-sulfonamide] | 15000 to 35000 |
| CC(C)(O)c1ccc(S(=O)(=O)NC(=O)Nc2c3c(c(F)c4c2CCC4)CCC3)s1 [Compound 176, N-(8-fluoro-1,2,3,5,6,7-hexahydros-indacen-4-ylcarbamoyl)-5-(2-hydroxypropan-2-yl) thiophene-2-sulfonamide] | < 1000 |
| N#Cc1c2c(c(NC(=O)NS(=O)(=O)c3ccc(C4(O)CC4)s3)c3c1CCC3)CCC2 [Compound 178, N-(8-cyano-1,2,3,5,6,7-hexahydros-indacen-4-ylcarbamoyl)-5-(1-hydroxycyclopropyl) thiophene-2-sulfonamide] | 1000 to 5000 |
| CC(C)c1ccc(Cl)c(C(C)C)c1NC(=O)NS(=O)(=O)c1ncc(C(C)(C)O)s1 [Compound 179, N-(3-chloro-2,6-diisopropylphenylcarbamoyl)-5-(2-hydroxypropan-2-yl)thiazole-2-sulfonamide] | 1000 to 5000 |
| CC(C)c1ccc(Cl)c(C(C)C)c1NC(=O)NS(=O)(=O)c1cc(C(C)(C)O)cs1 [Compound 180, N-(3-chloro-2,6-diisopropylphenylcarbamoyl)-4-(2-hydroxypropan-2-yl)thiophene-2-sulfonamide] | < 1000 |
| CC(C)c1ccc(Cl)c(C(C)C)c1NC(=O)NS(=O)(=O)c1cc(C2(O)CC2)co1 [Compound 181, N-(3-chloro-2,6-diisopropylphenylcarbamoyl)-4-(1-hydroxycyclopropyl) furan-2-sulfonamide] | < 1000 |
| COc1ccc2c(c1NC(=O)NS(=O)(=O)c1ncc(C(C)(C)O)s1)CCC2 [Compound 182, 5-(2-hydroxypropan-2-yl)-N-(5-methoxy-2,3-dihydro-1H-inden-4-ylcarbamoyl)thiazole-2-sulfonamide] | 1000 to 5000 |
| O=C(Nc1c2c(cc3c1CCC3)CCC2)NS(=O)(=O)c1ncc(C2(O)CCCC2)s1 [Compound 183] | < 1000 |
| CC(C)c1cc(C#N)cc(C(C)C)c1NC(=O)NS(=O)(=O)c1ccc(C(C)(C)O)s1 [Compound 184, N-(4-cyano-2,6-diisopropylphenylcarbamoyl)-5-(2-hydroxypropan-2-yl) thiophene-2-sulfonamide] | < 1000 |
| CC(C)c1ccc(F)c(C(C)C)c1NC(=O)NS(=O)(=O)c1ccc(C(C)(C)O)s1 [Compound 185, N-(3-fluoro-2,6-diisopropylphenylcarbamoyl)-5-(2-hydroxypropan-2-yl)thiophene-2-sulfonamide] | 1000 to 5000 |
| CC(C)c1cccc(C(C)C)c1NC(=O)NS(=O)(=O)c1ccc(C(C)(C)O)s1 [Compound 188, N-(2,6-diisopropylphenylcarbamoyl)-5-(2-hydroxypropan-2-yl) thiophene-2-sulfonamide] | 1000 to 5000 |
| CC(C)(O)c1ccc(S(=O)(=O)NC(=O)Nc2c3c(c(Cl)c4c2CCC4)CCC3)s1 [Compound 189, N-(8-chloro-1,2,3,5,6,7-hexahydros-indacen-4-ylcarbamoyl)-5-(2-hydroxypropan-2-yl) thiophene-2-sulfonamide] | < 1000 |
| CC(C)(O)c1cnc(S(=O)(=O)NC(=O)Nc2cccc3c2CCC3)s1 [Compound 190, N-(2,3-dihydro-1H-inden-4-ylcarbamoyl)-5-(2-hydroxypropan-2-yl)thiazole-2-sulfonamide] | 1000 to 5000 |
| CC(C)(O)c1csc(S(=O)(=O)NC(=O)Nc2cccc3c2CCC3)c1 [Compound 191, N-(2,3-dihydro-1H-inden-4-ylcarbamoyl)-4-(2-hydroxypropan-2-yl) thiophene-2-sulfonamide] | 1000 to 5000 |
| O=C(Nc1cccc2c1CCC2)NS(=O)(=O)c1cc(C2(O)CC2)co1 [Compound 192, N-(2,3-dihydro-1H-inden-4-ylcarbamoyl)-4-(1-hydroxycyclopropyl) furan-2-sulfonamide] | 1000 to 5000 |
| O=C(Nc1c2c(cc3c1CCC3)CCC2)NS(=O)(=O)c1ncc(C2(O)CCCCC2)s1 [Compound 193, N-(1,2,3,5,6,7-hexahydros-indacen-4-ylcarbamoyl)-5-(1-hydroxycyclohexyl) thiazole-2-sulfonamide] | 1000 to 5000 |
| CC(C)c1cc(C#N)cc(C(C)C)c1NC(=O)NS(=O)(=O)c1ccc(C2(O)CC2)s1 [Compound 194, N-(4-cyano-2,6-diisopropylphenylcarbamoyl)-5-(1-hydroxycyclopropyl) thiophene-2-sulfonamide] | 1000 to 5000 |
| CC(C)c1ccc(F)c(C(C)C)c1NC(=O)NS(=O)(=O)c1ccc(C2(O)CC2)s1 [Compound 195, N-(3-fluoro-2,6-diisopropylphenylcarbamoyl)-5-(1-hydroxycyclopropyl) thiophene-2-sulfonamide] | 1000 to 5000 |
| CC(C)c1cc(Cl)cc(C(C)C)c1NC(=O)NS(=O)(=O)c1ccc(C2(O)CC2)s1 [Compound 196, N-(4-chloro-2,6-diisopropylphenylcarbamoyl)-5-(1-hydroxycyclopropyl) thiophene-2-sulfonamide] | < 1000 |
| O=C(Nc1c2c(cc3c1CCC3)CCC2)NS(=O)(=O)c1ncc(C2(O)CCC2)s1 [Compound 197, N-(1,2,3,5,6,7-hexahydros-indacen-4-ylcarbamoyl)-5-(1-hydroxycyclo-butyl)thiazole-2-sulfonamide] | < 1000 |
| CC(C)c1cc(F)cc(C(C)C)c1NC(=O)NS(=O)(=O)c1ccc(C2(O)CC2)s1 [Compound 198, N-(4-fluoro-2,6-diisopropylphenylcarbamoyl)-5-(1-hydroxycyclopropyl) thiophene-2-sulfonamide] | < 1000 |
| O=C(Nc1c2c(c(Cl)c3c1CCC3)CCC2)NS(=O)(=O)c1ccc(C2(O)CC2)s1 [Compound 199, N-(8-chloro-1,2,3,5,6,7-hexahydros-indacen-4-ylcarbamoyl)-5-(1-hydroxycyclopropyl) thiophene-2-sulfonamide] | 1000 to 5000 |
| O=C(Nc1c2c(c(F)c3c1CCC3)CCC2)NS(=O)(=O)c1ccc(C2(O)CC2)s1 [Compound 200] | < 1000 |
